Measured values: US20230301957A1, “PO[…] ACID ESTER COMPOSITION AND APPLICATION THEREOF” (SINGAO (XUZHOU) BIOTECH CO., LTD, priority 2020, published 2023)

System: influenza virus H1N1
Test: Hemagglutination test of supernatants of influenza-infected A549 cells
Assay type: cell-based, influenza virus H1N1 (A549 cells)
Conditions: for hemagglutination titer, average values: average of the two inoculation treatments (Protocol 1 and 2); for inhibitory effect on the influenza virus (in words): from average hemagglutination titers, high titer indicates high virus content
Experimental: A total of four samples were prepared in this experiment: • (1) a lauric acid sample: 3.5 mg of lauric acid was dissolved in 0.5 mL of dimethyl sulfoxide, and then diluted with 9.5 mL of cell culture medium to a final concentration of 0.35 mg/mL and a pH value of the sample was 10.1; • (2) an α-monolaurin sample: 4.8 mg of α-monolaurin was dissolved in 0.5 mL of dimethyl sulfoxide, and then diluted with 9.5 mL of cell culture medium to a final concentration of 0.48 mg/mL and a pH value of the sample was 10.3; • (3) a triglycerol monolaurin sample: 7.5 mg of triglycerol monolaurin was diluted with 10 mL of cell culture medium to a final concentration of 0.75 mg/mL and a pH value of the sample was 7.6; and • (4) a triglycerol monolaurin acidic emulsion sample: 50 mg of triglycerol monolaurin acidic emulsion sample was diluted with 10 mL of cell culture medium to a final concentration of 5 mg/mL and a pH value of the sample was 7.5.
According to equivalent lauric acid concentration conversion, lauric acid concentrations in the samples (2) to (4) were all 0.35 mg/mL, which was equal to that in the sample (1).
The A549 cells were cultured in a 24-well plate, after growing to a monolayer, the cells were treated according to the following two protocols: • I. The cell culture medium was removed, the virus was added, the cells were cultured in an incubator with 5% CO2 at 37° C. for 1 h, the virus solution was removed, each prepared sample was added, 12 parallel test wells were set for each group, and the cells were cultured in the incubator with 5% CO2 at 37° C. for 1 h. After the culture, liquids in the cell culture wells were removed, the cells were washed with PBS, added with a cell maintenance medium, and cultured in the incubator with 5% CO2 at 37° C. for 24 h. Meanwhile, a virus positive control group (a cell culture medium mixed with influenza virus 24HAU was added) was set. • II. The cell culture medium was removed, each prepared sample and the virus were added, 12 parallel test wells were set for each group, and the cells were cultured in an incubator with 5% CO2 at 37° C. for 1 h. After the culture, liquids in the cell culture wells were removed, the cells were washed with PBS, added with a cell maintenance medium, and cultured in the incubator with 5% CO2 at 37° C. for 24 h. Meanwhile, a virus positive control group (a cell culture medium mixed with influenza virus 24HAU was added) was set.
Cell culture supernatants respectively obtained by the above 2 treatment methods were used for hemagglutination test, each culture plate was frozen and thawed repeatedly 3 times, a cell solution was collected for extraction of RNA, which was used for qRT-PCR detection of nucleoprotein (NP).

CCCCCCCCCCCC(=O)O [(1), lauric acid]
hemagglutination titer, average values: 4.75
inhibitory effect on the influenza virus (in words): weaker compared to the sample (4)

triglycerol monolaurin [(3)]
hemagglutination titer, average values: 4.25
inhibitory effect on the influenza virus (in words): weaker compared to the sample (4)

CCCCCCCCCCCC(=O)OCC(O)CO (stereo not drawn) [(2), α-monolaurin]
hemagglutination titer, average values: 2.25
inhibitory effect on the influenza virus (in words): the strongest
